Data published in patent EP4596574A1, “GLP-1/GCG/GIP TRIPLE-RECEPTOR AGONIST AND USE THEREOF” (Sunshine Lake Pharma Co., Ltd., priority 2022, dated 2024).
pEC50: −log10 of the molar value. Starred links: 1 amine or outer side, 2 acyl side, 3 side chain; linkers in the order of their positions; H or OH if unused. Non-standard residues stand in square brackets, D forms with d. Residues, ends and D or L forms follow the SMILES beside them. Groups on a side chain read outwards from the residue. *: point of attachment. C20 diacid = O=C(O)CCCCCCCCCCCCCCCCCCC(=O)*; C18 diacid = O=C(O)CCCCCCCCCCCCCCCCC(=O)*; αMePhe(2-F) = C[C@](N)(Cc1ccccc1F)C(=O)O; γGlu = O=C(O)[C@H](CCC(=O)[*:2])N[*:1]; AEEA = NCCOCCOCC(=O)O; Aib = CC(C)(N)C(=O)O

What was measured:
Assay type in all cases: cell-based
[1] = biological target: T1, GLP-1R (Homo sapiens, UniProt P43220); assay: In vitro cell activity, cAMP production in HEK293 cells expressing GLP-1R; conditions: HEK293-GLP-1R cells, cAMP; read-out: GLP-1R (EC50)
T1 construct: expressed in transfected cells; host or cells: HEK293 (HEK293-GLP-1R)
T1 sequence (P43220 24-463, species assumed): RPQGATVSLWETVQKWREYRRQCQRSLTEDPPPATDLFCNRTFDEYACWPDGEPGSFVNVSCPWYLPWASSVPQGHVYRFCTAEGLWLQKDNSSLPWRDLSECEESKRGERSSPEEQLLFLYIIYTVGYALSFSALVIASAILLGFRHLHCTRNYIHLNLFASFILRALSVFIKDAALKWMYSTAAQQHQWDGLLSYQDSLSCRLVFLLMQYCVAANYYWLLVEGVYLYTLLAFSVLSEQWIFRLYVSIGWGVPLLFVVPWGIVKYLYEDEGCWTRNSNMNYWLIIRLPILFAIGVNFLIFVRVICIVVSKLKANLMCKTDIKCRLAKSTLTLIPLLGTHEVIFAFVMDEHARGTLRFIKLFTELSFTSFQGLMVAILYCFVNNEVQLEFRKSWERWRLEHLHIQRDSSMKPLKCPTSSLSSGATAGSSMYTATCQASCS
Method in brief: (§1)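 Assay format: cells at 4×10^5 cells/mL, cAMP sensed by d2/cryptate FRET pair, dual-wavelength read at 665 and 620 nm. Potency expressed as EC50 from nonlinear fitting.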

[2] = biological target: T2, GCGR (Homo sapiens, UniProt P47871); assay: In vitro cell activity, cAMP production in HEK293 cells expressing GCGR; conditions: HEK293-GCGR cells, cAMP; read-out: GCGR (EC50)
T2 construct: expressed in transfected cells; host or cells: HEK293 (HEK293-GCGR)
T2 sequence (P47871 26-477, species assumed): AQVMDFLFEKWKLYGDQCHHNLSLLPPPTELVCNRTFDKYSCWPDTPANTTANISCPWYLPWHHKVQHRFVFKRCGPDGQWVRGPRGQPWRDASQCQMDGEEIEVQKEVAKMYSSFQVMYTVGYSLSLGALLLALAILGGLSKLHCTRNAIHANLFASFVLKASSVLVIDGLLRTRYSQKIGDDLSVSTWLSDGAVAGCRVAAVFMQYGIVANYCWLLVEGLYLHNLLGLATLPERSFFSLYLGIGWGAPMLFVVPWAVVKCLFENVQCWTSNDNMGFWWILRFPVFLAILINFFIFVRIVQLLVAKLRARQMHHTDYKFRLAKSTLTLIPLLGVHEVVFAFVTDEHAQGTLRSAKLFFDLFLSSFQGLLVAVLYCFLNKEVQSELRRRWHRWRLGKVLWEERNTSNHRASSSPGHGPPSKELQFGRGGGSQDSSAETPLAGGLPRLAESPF
Method in brief: as §1

[3] = biological target: T3, GIPR (Homo sapiens, UniProt P48546); assay: In vitro cell activity, cAMP production in HEK293 cells expressing GIPR; conditions: HEK293-GIPR cells, cAMP; read-out: GIPR (EC50)
T3 construct: expressed in transfected cells; host or cells: HEK293 (HEK293-GIPR)
T3 sequence (P48546 22-466): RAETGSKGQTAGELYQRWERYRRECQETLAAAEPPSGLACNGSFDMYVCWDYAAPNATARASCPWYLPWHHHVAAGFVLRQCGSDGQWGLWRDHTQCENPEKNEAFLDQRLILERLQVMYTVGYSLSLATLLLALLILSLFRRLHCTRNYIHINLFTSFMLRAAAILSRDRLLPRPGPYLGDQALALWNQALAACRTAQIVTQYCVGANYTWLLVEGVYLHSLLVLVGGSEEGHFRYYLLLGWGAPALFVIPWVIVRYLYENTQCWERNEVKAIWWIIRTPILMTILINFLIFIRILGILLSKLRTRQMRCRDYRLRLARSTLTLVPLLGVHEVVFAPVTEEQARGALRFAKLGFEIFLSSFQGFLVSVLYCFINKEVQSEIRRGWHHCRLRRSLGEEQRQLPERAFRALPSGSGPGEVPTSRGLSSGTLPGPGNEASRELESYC
Method in brief: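 cAMP accumulation is quantified by homogeneous TR-FRET (cAMP-d2 plus anti-cAMP cryptate) in GIPR-expressing HEK293 cells seeded from a 4×10^5 cells/mL suspension and treated with compound. The signal ratio is plotted against concentration and fitted to a four-parameter curve to give EC50.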

SMILES | pEC50 [1] | pEC50 [2] | pEC50 [3]
CC[C@H](C)[C@H](NC(=O)[C@H](Cc1ccccc1)NC(=O)[C@H](C)NC(=O)[C@H](CCC(N)=O)NC(=O)[C@H](CCC(N)=O)NC(=O)[C@H](C)NC(=O)[C@H](CCCCNC(=O)COCCOCCNC(=O)CC[C@H](NC(=O)CCCCCCCCCCCCCCCCCCC(=O)O)C(=O)O)NC(=O)[C@H](CCC(=O)O)NC(=O)[C@H](CC(=O)O)NC(=O)[C@H](CC(C)C)NC(=O)[C@H](CC(C)C)NC(=O)[C@@H](NC(=O)[C@H](CO)NC(=O)[C@H](Cc1ccc(O)cc1)NC(=O)[C@H](CC(=O)O)NC(=O)[C@H](CO)NC(=O)[C@@H](NC(=O)[C@](C)(Cc1ccccc1F)NC(=O)[C@@H](NC(=O)CNC(=O)[C@H](CCC(N)=O)NC(=O)C(C)(C)NC(=O)[C@@H](N)Cc1ccc(O)cc1)[C@@H](C)O)[C@@H](C)O)[C@@H](C)CC)C(=O)N[C@@H](CCC(=O)O)C(=O)N[C@@H](Cc1ccc(O)cc1)C(=O)N[C@@H](CC(C)C)C(=O)N[C@@H](CC(C)C)C(=O)N[C@@H](CCC(=O)O)C(=O)NCC(=O)NCC(=O)N1CCC[C@H]1C(=O)N[C@@H](CO)C(=O)N[C@@H](CO)C(=O)NCC(=O)N[C@@H](C)C(=O)N1CCC[C@H]1C(=O)N1CCC[C@H]1C(=O)N1CCC[C@H]1C(=O)N[C@@H](CO)C(=O)O [HEC-PT68] | 9.38 | 9.13 | 9.70
CC[C@H](C)[C@H](NC(=O)[C@H](Cc1ccccc1)NC(=O)[C@H](C)NC(=O)[C@H](CCCCN)NC(=O)[C@H](CCC(N)=O)NC(=O)[C@H](CCCNC(=N)N)NC(=O)[C@H](CCCCNC(=O)COCCOCCNC(=O)CC[C@H](NC(=O)CCCCCCCCCCCCCCCCC(=O)O)C(=O)O)NC(=O)[C@H](CCC(=O)O)NC(=O)[C@H](CC(=O)O)NC(=O)[C@H](CC(C)C)NC(=O)[C@H](CC(C)C)NC(=O)[C@@H](NC(=O)[C@H](CO)NC(=O)[C@H](Cc1ccc(O)cc1)NC(=O)[C@H](CC(=O)O)NC(=O)[C@H](CO)NC(=O)[C@@H](NC(=O)[C@](C)(Cc1ccccc1F)NC(=O)[C@@H](NC(=O)CNC(=O)[C@H](Cc1c[nH]cn1)NC(=O)C(C)(C)NC(=O)[C@@H](N)Cc1ccc(O)cc1)[C@@H](C)O)[C@@H](C)O)[C@@H](C)CC)C(=O)N[C@@H](CCC(=O)O)C(=O)N[C@@H](Cc1ccc(O)cc1)C(=O)N[C@@H](CC(C)C)C(=O)N[C@@H](CC(C)C)C(=O)N[C@@H](C)C(=O)NCC(=O)NCC(=O)N1CCC[C@H]1C(=O)N[C@@H](CO)C(=O)N[C@@H](CO)C(=O)NCC(=O)N[C@@H](C)C(=O)N1CCC[C@H]1C(=O)N1CCC[C@H]1C(=O)N1CCC[C@H]1C(=O)N[C@@H](CO)C(N)=O [HEC-PT121] | 9.56 | 9.05 | 10.09
CC[C@H](C)[C@H](NC(=O)[C@H](Cc1ccccc1)NC(=O)[C@H](C)NC(=O)C(C)(C)NC(=O)[C@H](CCC(N)=O)NC(=O)[C@H](C)NC(=O)[C@H](CCCCNC(=O)COCCOCCNC(=O)CC[C@H](NC(=O)CCCCCCCCCCCCCCCCC(=O)O)C(=O)O)NC(=O)[C@H](CCC(=O)O)NC(=O)[C@H](CC(=O)O)NC(=O)[C@H](CC(C)C)NC(=O)[C@H](CC(C)C)NC(=O)[C@@H](NC(=O)[C@H](CO)NC(=O)[C@H](Cc1ccc(O)cc1)NC(=O)[C@H](CC(=O)O)NC(=O)[C@H](CO)NC(=O)[C@@H](NC(=O)[C@](C)(Cc1ccccc1F)NC(=O)[C@@H](NC(=O)CNC(=O)[C@H](CCC(N)=O)NC(=O)C(C)(C)NC(=O)[C@@H](N)Cc1ccc(O)cc1)[C@@H](C)O)[C@@H](C)O)[C@@H](C)CC)C(=O)N[C@@H](CCC(=O)O)C(=O)N[C@@H](Cc1ccc(O)cc1)C(=O)N[C@@H](CC(C)C)C(=O)N[C@@H](CC(C)C)C(=O)N[C@@H](C)C(=O)NCC(=O)NCC(=O)N1CCC[C@H]1C(=O)N[C@@H](CO)C(=O)N[C@@H](CO)C(=O)NCC(=O)N[C@@H](C)C(=O)N1CCC[C@H]1C(=O)N1CCC[C@H]1C(=O)N1CCC[C@H]1C(=O)N[C@@H](CO)C(N)=O [HEC-PT108] | 9.70 | 9.06 | 10.27
CC[C@H](C)[C@H](NC(=O)[C@H](CO)NC(=O)[C@H](Cc1ccc(O)cc1)NC(=O)[C@H](CC(=O)O)NC(=O)[C@H](CO)NC(=O)[C@@H](NC(=O)[C@](C)(Cc1ccccc1F)NC(=O)[C@@H](NC(=O)CNC(=O)[C@H](CCC(N)=O)NC(=O)C(C)(C)NC(=O)[C@@H](N)Cc1ccc(O)cc1)[C@@H](C)O)[C@@H](C)O)C(=O)N[C@@H](CC(C)C)C(=O)N[C@@H](CCCCNC(=O)COCCOCCNC(=O)CC[C@H](NC(=O)CCCCCCCCCCCCCCCCC(=O)O)C(=O)O)C(=O)N[C@@H](CC(=O)O)C(=O)N[C@@H](CCCNC(=N)N)C(=O)N[C@@H](CCCNC(=N)N)C(=O)N[C@@H](C)C(=O)N[C@@H](CCC(N)=O)C(=O)N[C@@H](CCC(N)=O)C(=O)N[C@@H](C)C(=O)N[C@@H](Cc1ccccc1)C(=O)N[C@H](C(=O)N[C@@H](CCC(=O)O)C(=O)N[C@@H](Cc1ccc(O)cc1)C(=O)N[C@@H](CC(C)C)C(=O)N[C@@H](CC(C)C)C(=O)N[C@@H](C)C(=O)NCC(=O)NCC(=O)N1CCC[C@H]1C(=O)N[C@@H](CO)C(=O)N[C@@H](CO)C(=O)NCC(=O)N[C@@H](C)C(=O)N1CCC[C@H]1C(=O)N1CCC[C@H]1C(=O)N1CCC[C@H]1C(=O)N[C@@H](CO)C(=O)O)C(C)C [HEC-PT148] (H-Y[Aib]QGT[αMePhe(2-F)]TSDYSILK([AEEA-γGlu-C18 diacid])DRRAQQAFVEYLLAGGPSSGAPPPS-OH) | 10.13 | 9.79 | 9.51
CC[C@H](C)[C@H](NC(=O)[C@H](Cc1ccccc1)NC(=O)[C@H](C)NC(=O)C(C)(C)NC(=O)[C@H](CCC(N)=O)NC(=O)[C@H](CCCNC(=N)N)NC(=O)[C@@H](NC(=O)[C@H](CCCCN)NC(=O)[C@H](CC(=O)O)NC(=O)[C@H](CCCCNC(=O)COCCOCCNC(=O)CC[C@H](NC(=O)CCCCCCCCCCCCCCCCC(=O)O)C(=O)O)NC(=O)[C@H](CC(C)C)NC(=O)[C@@H](NC(=O)[C@H](CO)NC(=O)[C@H](Cc1ccc(O)cc1)NC(=O)[C@H](CC(=O)O)NC(=O)[C@H](CO)NC(=O)[C@@H](NC(=O)[C@](C)(Cc1ccccc1F)NC(=O)[C@@H](NC(=O)CNC(=O)[C@H](CCC(N)=O)NC(=O)C(C)(C)NC(=O)[C@@H](N)Cc1ccc(O)cc1)[C@@H](C)O)[C@@H](C)O)[C@@H](C)CC)[C@@H](C)CC)C(=O)N[C@@H](CCC(=O)O)C(=O)N[C@@H](Cc1ccc(O)cc1)C(=O)N[C@@H](CC(C)C)C(=O)N[C@@H](CC(C)C)C(=O)N[C@@H](C)C(=O)NCC(=O)NCC(=O)N1CCC[C@H]1C(=O)N[C@@H](CO)C(=O)N[C@@H](CO)C(=O)NCC(=O)N[C@@H](C)C(=O)N1CCC[C@H]1C(=O)N1CCC[C@H]1C(=O)N1CCC[C@H]1C(=O)N[C@@H](CO)C(N)=O [HEC-PT145] (H-Y[Aib]QGT[αMePhe(2-F)]TSDYSILK([AEEA-γGlu-C18 diacid])DKIRQ[Aib]AFIEYLLAGGPSSGAPPPS-NH2) | 9.90 | 10.18 | 10.50
CC[C@H](C)[C@H](NC(=O)[C@H](CCCCN)NC(=O)[C@H](CC(=O)O)NC(=O)[C@H](CCCCNC(=O)COCCOCCNC(=O)CC[C@H](NC(=O)CCCCCCCCCCCCCCCCCCC(=O)O)C(=O)O)NC(=O)[C@H](CC(C)C)NC(=O)[C@@H](NC(=O)[C@H](CO)NC(=O)[C@H](Cc1ccc(O)cc1)NC(=O)[C@H](CC(=O)O)NC(=O)[C@H](CO)NC(=O)[C@@H](NC(=O)[C@](C)(Cc1ccccc1F)NC(=O)[C@@H](NC(=O)CNC(=O)[C@H](CCC(N)=O)NC(=O)C(C)(C)NC(=O)[C@@H](N)Cc1ccc(O)cc1)[C@@H](C)O)[C@@H](C)O)[C@@H](C)CC)C(=O)N[C@@H](C)C(=O)N[C@@H](CCC(N)=O)C(=O)NC(C)(C)C(=O)N[C@@H](C)C(=O)N[C@@H](Cc1ccccc1)C(=O)N[C@H](C(=O)N[C@@H](CCC(=O)O)C(=O)N[C@@H](Cc1ccc(O)cc1)C(=O)N[C@@H](CC(C)C)C(=O)N[C@@H](CC(C)C)C(=O)N[C@@H](C)C(=O)NCC(=O)NCC(=O)N1CCC[C@H]1C(=O)N[C@@H](CO)C(=O)N[C@@H](CO)C(=O)NCC(=O)N[C@@H](C)C(=O)N1CCC[C@H]1C(=O)N1CCC[C@H]1C(=O)N1CCC[C@H]1C(=O)N[C@@H](CO)C(N)=O)[C@@H](C)CC [HEC-PT138] (H-Y[Aib]QGT[αMePhe(2-F)]TSDYSILK([AEEA-γGlu-C20 diacid])DKIAQ[Aib]AFIEYLLAGGPSSGAPPPS-NH2) | 9.57 | 9.76 | 10.19
